# Laboratory results: US20080176952A1, “Management of Ophthalmologic Disorders, Including Macular Degeneration” (priority 2004, published 2008)
# Like-named read-outs stand apart in the source and are kept apart here.
# T1: tLRAT (Homo sapiens, UniProt O95237)
# T1 construct: This form of LRAT has the two N and C-terminal transmembrane domains of LRAT truncated; made in house
# T1 sequence (O95237 31-196 limits assumed): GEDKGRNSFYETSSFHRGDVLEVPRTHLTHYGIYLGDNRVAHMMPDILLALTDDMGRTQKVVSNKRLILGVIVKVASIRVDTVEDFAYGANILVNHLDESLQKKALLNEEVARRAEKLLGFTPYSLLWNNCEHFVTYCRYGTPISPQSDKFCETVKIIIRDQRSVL
# B1: mRPE65: membrane-associated, palmitoylated form of RPE65; acts as palmitoyl donor for LRAT (protein, UniProt Q16518 2-533, looked up)
# Retinoid isomerohydrolase: SIQVEHPAGGYKKLFETVEELSSPLTAHVTGRIPLWLTGSLLRCGPGLFEVGSEPFYHLFDGQALLHKFDFKEGHVTYHRRFIRTDAYVRAMTEKRIVITEFGTCAFPDPCKNIFSRFFSYFRGVEVTDNALVNVYPVGEDYYACTETNFITKINPETLETIKQVDLCNYVSVNGATAHPHIENDGTVYNIGNCFGKNFSIAYNIVKIPPLQADKEDPISKSEIVVQFPCSDRFKPSYVHSFGLTPNYIVFVETPVKINLFKFLSSWSLWGANYMDCFESNETMGVWLHIADKKRKKYLNNKYRTSPFNLFHHINTYEDNGFLIVDLCCWKGFEFVYNYLYLANLRENWEEVKKNARKAPQPEVRRYVLPLNIDKADTGKNLVTLPNTTATAILCSDETIWLEPEVLFSGPRQAFEFPQINYQKYCGKPYTYAYGLGLNHFVPDRLCKLNVKTKETWVWQEPDSYPSEPIFVSHPDALEEDDGVVLSVVVSPGAGQKPAYLLILNAKDLSEVARAEVEINIPVTFHGLFKKS
# modifications: palmitoylated membrane-associated form
# notes: membrane-associated, palmitoylated form of RPE65; acts as palmitoyl donor for LRAT
# Tests used:
# [1] = test system: 11-cis-retinol biosynthesis (IMH activity) in retinal pigment epithelial membrane system; test: Effect on 11-cis-retinol biosynthesis (IMH activity) in RPE membranes; assay type: biochemical, bovine
# Experimental: A control reaction mixture without any inhibitor was also incubated at room temperature for 15 min. At the end of the min incubation, all-trans-retinol [11-12-^3H2] (0.2 μM) was added to the reaction mixtures (100 mM Tris pH 8.0, […] of RPE protein, 0.2% BSA 100 μM of DPPC, 1 mM of DTT and 0.2 μM all-trans-retinol [11-12-^3H2]) and incubated at room temperature for 30 min. At the end of this 30 minutes of incubation, an aliquot of the reactions were quenched to verify the equal addition of all-trans-retinol [11,12-^3H2] and the effect of these inhibitors on LRAT. After this the control reaction mixture was incubated with atRA (60 & 6 μM), 13cRA (60 & 6 μM) or 4-HPR (60 & 6 μM) for 15 min. Now all the reaction mixtures were incubated with 30 μM of apo-rCRALBP (100 mM Tris pH 8.0, 7.7 μg of RPE protein, 0.2% BSA 100 μM of DPPC, 1 mM of DTT 30 μM apo-rCRALBP and 0.2 μM all-trans-retinol [11-12-^3H2]) at 37° C. for 30 minutes. At the end of this incubation period the 200 μL reaction mixture was quenched by the addition of 750 μL ice cold methanol after which 100 μL of 1M sodium chloride solution was added, and 500 μl hexane (containing butylated hydroxy toluene at 1 mg/mL) was added to effect extraction of the retinoids. The retinoids were analyzed as previously described (27). The amount of 11-cis-retinol formed was used as a measurement of IMH activity. All experiments were performed in triplicate and the average values of these measurements were used for analysis.
# A control reaction mixture without any inhibitor was also incubated at room temperature for 15 min. At the end of the min incubation, all-trans-retinol [11-12-^3H2] (0.2 μM) was added to the reaction mixtures (100 mM Tris pH 8.0, 76.7 μg of RPE protein, 0.2% BSA 100 μM of DPPC, 1 mM of DTT and 0.2 μM all-trans-retinol [11-12-^3H2]) and incubated at room temperature for 30 min. […] The retinoids were analyzed as previously described (27). […]
# RPE65 = biological target: T2, RPE65 (Bos taurus, UniProt Q28175); test: Fluorescence binding assay of retinoids and analogs to purified RPE65; design: species or system bovine
# T2 construct: Frozen bovine eyecups devoid of retinas were purchased from W. L. Lawson Co; tissue W. L. Lawson Co; host or cells: bovine eyecups (retinal pigment epithelium)
# T2 sequence (Q28175 whole entry): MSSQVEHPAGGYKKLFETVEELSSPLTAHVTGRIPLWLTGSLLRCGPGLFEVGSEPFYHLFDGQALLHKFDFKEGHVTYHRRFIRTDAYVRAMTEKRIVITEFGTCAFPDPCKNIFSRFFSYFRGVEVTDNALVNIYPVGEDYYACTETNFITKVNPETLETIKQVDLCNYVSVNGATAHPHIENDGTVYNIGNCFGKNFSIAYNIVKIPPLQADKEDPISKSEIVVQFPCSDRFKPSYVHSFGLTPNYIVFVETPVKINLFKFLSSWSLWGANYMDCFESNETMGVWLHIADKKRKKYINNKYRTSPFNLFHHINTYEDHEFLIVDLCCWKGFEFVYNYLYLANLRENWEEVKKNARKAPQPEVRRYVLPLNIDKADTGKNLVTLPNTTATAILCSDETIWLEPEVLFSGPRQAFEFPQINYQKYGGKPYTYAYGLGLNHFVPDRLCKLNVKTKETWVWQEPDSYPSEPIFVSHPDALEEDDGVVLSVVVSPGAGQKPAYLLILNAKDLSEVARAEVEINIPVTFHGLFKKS
# Experimental: Purification of mRPE65, sRPE65 and rHRPE65: Purification was performed as described before (Ma et al., 2001). The purities of these proteins were verified by silver staining or Coomassie staining and Western blot (1:4000 primary antibody-1 h at room temperature and 1:4000 secondary antibody-0.5 h at room temperature).
# (§1) Fluorescence binding assays: RPE65 in PBS, 1% CHAPS, pH 7.4 was used in the fluorometric titration studies. Protein concentrations were measured by a modified Lowry method (Lowry et al., 1951). All titrations were performed at 25° C. The samples in PBS buffer were excited at 280 nm and the fluorescence was scanned from 300 to 500 nm. Fluorescence measurements, using 450 μL quartz cuvettes with a 0.5 cm path length, were made at 25° C. on a Jobin Yvon Instruments, Fluoromax 2 employing the right-angle detection method.
# (§2) The fluorescence of the protein solution was measured after equilibrating it at 25° C. for 10 min. The sample was then titrated with a solution of retinoid dissolved in dimethyl sulfoxide. In each titration, to a 250 μL solution of the protein an equal amount of retinoid, typically 0.2 μL. was added and thoroughly mixed before allowing it to equilibrate for 10 min prior to recording the fluorescence intensity. […] The binding constant (KD) was calculated from the fluorescence intensity by using the following equation (Gollapalli et al., 2003).
# where P0=Total protein concentration,
# n=number of independent binding sites, R0=Total retixioid concentration at each addition, KD=dissociation constant, Fmax=Fluorescence intensity at saturation, and F0=Initial fluorescence intensity.
# sRPE65 = biological target: T3, sRPE65 (Bos taurus, UniProt Q28175); test: Fluorescence binding of retinoids to purified sRPE65; design: species or system bovine; details: 0.37 μM sRPE65, phosphate buffered saline pH 7.4, 1% CHAPS
# T3 construct: Frozen bovine eyecups devoid of retinas were purchased from W. L. Lawson Co; tissue W. L. Lawson Co; host or cells: bovine eyecups (retinal pigment epithelium)
# T3 sequence (Q28175 whole entry): as above
# Experimental: as §1
# as §2, with “The sample was then titrated with a solution of retinoid dissolved in dimethyl sulfoxide.” left out
# As mentioned above, membrane associated RPE65 (mRPE65) stereospecifically binds all-trans-retinyl palmitate. In this example, the binding of retinoids to sRPE65 is measured by the fluorescence methodology already described (Gollapalli, D. R., Maiti, P., Rando, R. R. (2003) RPE65 operates in the vertebrate visual cycle by stereospecifically binding all-trans-retinyl esters. Biochemistry 42, 11824-30). […]
# mouse RPE65 = test: Constants of affinity (Kds) for mouse RPE65; assay type: binding; details: read-out: Kd (constant of affinity) for mouse RPE65
# Experimental: as §1, §2
# The constants of affinity (Kds) of several compounds for mouse RPE65 were determined. […] Thus, the potency of binding is a function of the ester chain length, i.e., the longer the chain length, the stronger the affinity for RPE65 is and the stronger the antagonist is.
# tLRAT = biological target: T1, tLRAT; test: mRPE65 concentration-dependent esterification of vitamin A by tLRAT; assay type: biochemical
# Experimental: mRPE65 concentration-dependent esterification of vitamin A: The effect of mRPE65 concentration on the rates of all-trans-retinyl palmitate formation was determined by monitoring the tLRAT catalyzed formation of all-trans-retinyl palmitate from added [11,12-^3H2]-all-trans-retinol and mRPE65. It should be noted that all-trans-retinyl palmitate formed from mRPE65 and vitamin A was identified both by its mass spectroscopic and chromatographic properties. The reaction mixture (volume 0.1 mL) contains 100 mM Tris (pH 8.4), 5 μM of tLRAT 0.3% CHAPS, 1 mM dithiothreitol and 5 μM of all-trans-retinol [11,12-^3H2] and mRPE65 (0, 0.008, 0.02, 0.028, 0.04, 0.052, 0.06 and 0.08 μM) incubated for 10 min at room temperature. After 10 min the reaction was quenched with 500 μL methanol, 100 μL of water and 500 μL of hexane. The amount of all-trans-retinyl palmitate [11,12-^3H2] formed as determined by normal phase-HPLC and was used as a measure of activity. The kinetic parameters KM (Kapp) and N were calculated as described before (Segal 1993). Each experiment was done in triplicate, and the data points used are an average of these three points. […]
# In these experiments, pure mRPE65 and vitamin A are incubated with LRAT and the resultant all-trans-retinyl palmitate is isolated by HPLC. […] Under the same conditions, no observable turnover of DPPC is measured (FIG. 11B).
# [2] = purified RPE65, PBS, 1% CHAPS, pH 7.4, 25° C., N=4, read-out: average KD for binding to RPE65
molecule,measurement,setting,value
CC1=C(/C=C/C(C)=C/C=C/C(C)=C\C(=O)O)C(C)(C)CCC1 [13-cis-retinoic acid],inhibition of 11-cis-retinol formation,"[1]; membranes pre-incubated with vitamin A before inhibitor, 60 μM, data not shown",not susceptible to inhibition
"CC1=C(/C=C/C(C)=C/C=C/C(C)=C/C(=O)Nc2ccc(O)cc2)C(C)(C)CCC1 [N-(4-hydroxyphenyl)retinamide, reference compound]",Kd,RPE65; [2],~3550 nM
same,inhibition of 11-cis-retinol formation,[1]; membranes pre-incubated with the inhibitor before vitamin A (FIG. 8),substantially weaker
"CC1=C(/C=C/C(C)=C/C=C/C(C)=C/CO)C(C)(C)CCC1 [all-trans-retinol, reference compound]",Kd,sRPE65,~65 nM
CCCCCCCCCCCCCCCC(=O)OC/C=C(C)/C=C/C=C(C)/C=C/C1=C(C)CCCC1(C)C [retinyl palmitate],Kd,"RPE65; antagonist of RPE65, read-out: KD",47 nM
same,Kd,RPE65; [2],47 nM
same,Kd,mouse RPE65,47 nM
same,Kd,sRPE65,~1200 nM
B1,Km,"tLRAT; 5 μM tLRAT, 5 μM all-trans-retinol, sigmoidal kinetics, read-out: KM (Kapp) as palmitoyl donor",0.03 µM
same,N (Hill plot),tLRAT; tLRAT catalyzed palmitoyl transfer to vitamin A,2.54
